From PMC12363342, “Investigating the N-terminal linker histone H1 subtypes as substrates for JmjC lysine demethylases” (RSC Chemical Biology, 2025)
Square brackets hold non-standard residues; d marks the D form. Ends that are not written are not given here. Lys(Me3) = C[N+](C)(C)CCCC[C@H](N)C(=O)O

What was measured:
KDM3B = assay: LC-MS demethylation activity assay, KDM3B; format: biochemical, human; settings: 2 μM KDM, 10 μM H1/H3 peptide, 10 μM FAS, 100 μM LAA, 20 μM 2OG, 50 mM HEPES pH 7.5, 2 h, room temperature, T (tri-) initial methylation state
Summary of the method: (§1)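 H1 isoform peptides (10 μM) were incubated 2 h at room temperature with 2 μM recombinant N-terminally His6-tagged catalytic domains in 50 mM HEPES pH 7.5 containing FAS (10 μM), ascorbate (100 μM) and 2OG (20 μM). Reactions were quenched with formic acid (1% final), and demethylation was analysed by LC-MS (Q-TOF).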

KDM3A = assay: LC-MS demethylation activity assay, KDM3A; format: biochemical, human; settings: 2 μM KDM, 10 μM H1/H3 peptide, 10 μM FAS, 100 μM LAA, 20 μM 2OG, 50 mM HEPES pH 7.5, 2 h, room temperature, T (tri-) initial methylation state
Summary of the method: as §1

| Substance | KDM3B demethylation activity, T (KDM3B) | KDM3A demethylation activity, T (KDM3A) |
| --- | --- | --- |
| KKKAAK[Lys(Me3)]AGGTPRKA [Peptide H1.2K26me3, 15-mer linker histone H1.2 residues 20-34 peptide, tri-methylated K26] | ● [red] | ● [red] |
| KKKAA[Lys(Me3)]KAGGTPRKA [Peptide H1.2K25me3, 15-mer linker histone H1.2 residues 20-34 peptide, tri-methylated K25] | ● [red] | ● [red] |
| KKKAR[Lys(Me3)]SAGAAKRKA [Peptide H1.4K25me3, 15-mer linker histone H1.4 residues 20-34 peptide, tri-methylated K25] | ● [red] | ● [red] |
| KKKATK[Lys(Me3)]AAGAGAAK [Peptide H1.5K26me3, 15-mer linker histone H1.5 residues 20-34 peptide, tri-methylated K26] | ● [red] | ● [red] |
| KKKA[Lys(Me3)]KAGATAGKRK [Peptide H1.3K24me3, 15-mer linker histone H1.3 residues 20-34 peptide, tri-methylated K24] | ● [red] | ● [red] |
